Laboratory results taken from patent EP0200607A1, “Surfactant chlorhexidine salts and compositions” (PIERRE FABRE COSMETIQUE, priority 1985, dated 1986).

Legend:
[1] = system: Escherichia coli ATCC 10536; assay: Antibacterial properties (Tableau I), Escherichia coli; assay type: cell-based
From the text: (§1) Des expérimentations ont été conduites afin de vérifier si ce nouveau sel de CHX possédait une bonne activité antiseptique comparativement au digluconate de CHX, sel de CHX des plus connus et largement utilisé et ce comparativement à l'acide AEC, ce dernier pouvant avoir par lui-même des propriétés antiseptiques.
(§2) L'activité de ces trois produits a été testée sur quatre germes […] et il a été constaté que non seulement on obtenait une activité voisine de celle du digluconate de CHX, mais que de plus, cette activité était plus importante dans trois cas (voir tableau I).

Candida albicans = assay: Antibacterial properties (Tableau I), Candida albicans; assay type: cell-based
From the text: as §1, §2

[2] = Foaming power (10 inversions of a stoppered cylinder); assay type: physicochemical; settings: 50 ml of a 10 % active matter solution, 100 ml cylinder, 23°C
Protocol: _Le_pouvoir moussant de l'acide éthoxycarboxylique et de l'éthoxycarboxylate de CHX a été vérifié, et ce comparativement.
A cet effet, on prépare une solution de tensioactif à 10% de matière active. On prélève 50 ml de cette solution que l'on introduit dans une éprouvette de 100 ml (diamètre intérieur 26 mm et hauteur 235 mm). On bouche hermétiquement cette éprouvette et on la soumet à 10 retournements successifs pour provoquer la formation de mousse. Cette manipulation se fait à 23°C (température de la solution).

[3] = system: Pseudomonas aeruginosa A 22; assay: Antibacterial properties (Tableau I), Pseudomonas aeruginosa; assay type: cell-based
From the text: as §1, §2

[4] = parameters: species or system cobaye; settings: in vivo
From the text: On peut penser que cette différence de pouvoir moussant est apportée par le solvant propylèneglycol […] Tolérance : On s'est contenté de vérifier la bonne tolérance cutanée et oculaire du tensioactif acide éthoxycarboxylique et du nouveau sel de CHX de cet exemple, pour bien démontrer la parfaite inocuité de ce nouveau produit.
. tolérance cutanée cobaye :
On voit d'après ces résultats que cette tolérance est meilleure sur ce test pour le nouveau sel de CHX que pour l'acide éthoxycarboxylique. La différence d'épaisseur de pli de peau mesuré le 4ème jour d'application quotidienne est de 0,23 contre 1,2 mm, l'érythème de 1,4 contre 4.

Staphylo-coque aureus = assay: Antibacterial properties (Tableau I), Staphylococcus aureus; assay type: cell-based
From the text: as §1, §2

[5] = in vivo
[6] = Acute toxicity, intraperitoneal LD50; assay type: in vivo
From the text: (§3) La toxicité de ce nouveau sel de CHX a été vérifiée comparativement au tensioactrf sous forme acide de départ, au tensioactif neutralisé par l'ion sodium, à la CHX base et à l'association tensioactif neutralisé par l'ion sodium + CHX base, car il est bien connu que la toxicité d'une molécule peut être potentialisée par la présence d'un tensioactif.
(§4) Deux tests ont été utilisés : • 1- l'évaluation de la DL 50 par voie orale, • 2- l'évaluation de la DL 50 par voie intra-péritonéale.

[7] = parameters: species or system lapin; settings: in vivo
From the text: . tolérance cutanée lapin :

[8] = Acute toxicity, oral LD50; assay type: in vivo
From the text: as §3, §4

[9] = system: Pseudomonas aeruginosa A 22; assay: Antiseptic activity by dilution in liquid medium (MIC and MBC), with anionic surfactants; assay type: cell-based; settings: Pseudomonas aeruginosa A 22, 10^6 germes/ml
From the text: de dilutions en milieu liquide, selon Peterson, Lance R., Denny, Aiken E., Gerding, Dale N. and Hall, Wendell H. :"determination of tolerance to antibiotic bactericidal on activity on Kivby-Baver susceptibility plates Am.J.Clin.Pathol. 74 : 645-650,1980.
Le but de la méthode est de déterminer la plus petite quantité d'un produit X qui exerce sur 10^6 cellules d'une flore bactérienne donnée une activité antiseptique de type bactériostatique ou bactéricide.
La méthode de dilution en milieu liquide permet de déterminer la CMI (concentration minimale inhibitrice-bacté- riostase) et la CMB (concentration minimale léthale-bactéricidie).
• . pipettes de 1 ml graduées au 1/100 en polystyrène cristal stériles, . pipettes Pasteur stériles, • . flacons en verre stériles de 30 ml, 100 ml, • . tubes à essai en verre PYREX stériles 65 x 13 mm, 160 x 16 mm, 25 x 200 mm et 18 x 180 mm, • . boîtes de Pétri, polystyrène cristal- stériles de 90 mm de diamètre, • . lumétron, colorimètre réf.401, • les milieux de culture liquides et gélosés sont adaptés à la croissance de l'espèce de microorganisme en test Pseudomonas aeruginosa. Un témoin de fertilité des milieux liquides et gélosés est réalisé à chaque expérimentation.
Les différents produits testés sont des solutions aqueuses d'alkyl éthoxycarboxylate de chlorhexidine (3%) et contenant un pourcentage variable de tensioactifs anioniques. Les solutions mères sont des dilutions au 1/10e des solutions précédentes.
Pseudomonas aeruginosa est ensemencé en stries sur une pente de gélose Tryptone Soya (CM 131 OXOID). On incube de 18 à 24 Heures à 32-35°C.
Pour le Pseudomonas aeruginosa, une transmission de 90 % représente une valeur de 2-10^8 germes/ml donc une dilution au 1/100e est nécessaire.
On prépare sur un portoir une série de tubes à hémolyse 65 x 13 mm stériles.
Chaque tube reçoit 1 ml de milieu de culture liquide dont la composition est adaptée à la croissance du germe (bouillon BN pour Pseudomonas aéruginosa).
Le tube reçoit 1 ml de la solution mère du produit à analyser. On homogénéise puis effectue des passages successifs au 1/2 jusqu'au dernier tube. Le volume dans tous les tubes est alors de 1 ml.
Toutes les dilutions sont ensemencées avec 1 ml de milieu de culture titrant […] par ml. Dans chaque tube on a alors 1.10^6 germes par ml.
Un tube sans antiseptique permet d'effectuer un dénombrement des microorganismes effectivement introduits dans le test et permet de s'assurer de la vitalité de la souche.
Dénombrement par la méthode de dilution-incorporation et incubation à l'étuve pendant 48 heures à 37°C.
La concentration minimale inhibitrice est la plus petite quantité de produit qui empêche le développement microbien (jugé à l'oeil) ;elle est exprimée en microgramme de chlorhexidine base par millilitre. […]

Solubility (qualitative) = settings: water

Compound: alkyl éthoxycarboxylique acide [AEC acide]
- Propriétés antibactériennes [1]: 12,5 mg/ml
- Propriétés antibactériennes (Candida albicans): 50 mg/mL
- Pouvoir moussant (mousse) [2]: 26 mL
- Propriétés antibactériennes [3]: 6,2 mg/ml
- différence d'épaisseur de pli de peau [4]: 1,2 mm
- érythème [4]: 4
- Propriétés antibactériennes (Staphylo-coque aureus): 1,56 mg/ml
- tolérance oculaire [5]: la mieux tolérée
- DL 50 voie intrapérito-néale [6]: 0,5 g/kg
- indice d'irritation primaire [7]: 0,75

Compound: Alkyl éthoxycarboxy-late de sodium
- DL 50 voie orale [8]: 7,5 g/kg

Compound: Alkyl éthoxycarboxylate de chlorhexidine [AEC de CHX]
- Pouvoir moussant (mousse) [2]: 16 mL
- différence d'épaisseur de pli de peau [4]: 0,23 mm
- érythème [4]: 1,4
- CMI ([9]; aqueous solutions with 3% alkyl éthoxycarboxylate de chlorhexidine): 8 microgramme de chlorhexidine base par millilitre
- CMB ([9]; sub-culture on neutralising medium): 8 microgramme de chlorhexidine base par millilitre
- indice d'irritation primaire [7]: 0,25

Compound: [H]/N=C(\N/C(=N/[H])NCCCCCCNC(=N)NC(=N)Nc1ccc(Cl)cc1)Nc1ccc(Cl)cc1 [chlorhexidine base, 1,6-di-(p-chlorophényl-biguanido) hexane]
- DL 50 voie orale [8]: pas de mortalité
- solubilité dans l'eau (Solubility (qualitative)): insoluble dans l'eau
- LD50 ([6]; in vivo, ip, read-out: DL 50 voie intrapérito-néale): 47 to 100 mg/kg

Compound: N=C(NCCCCCCNC(=N)NC(=N)Nc1ccc(Cl)cc1)NC(=N)Nc1ccc(Cl)cc1 [Digluconate de CHX, Digluconate de chlorhexidine]
- MIC ([9]; A22, aqueous solutions with 3% alkyl éthoxycarboxylate de chlorhexidine, read-out: CMI): 8.75 µg/mL
- MBC ([9]; A22, sub-culture on neutralising medium, read-out: CMB): 8.75 µg/mL
